Experimental data taken from patent US20040265847A1, “Method for treating Alzheimer's disease” (priority 1991, published 2004).

Legend:
[1] = system: PC12 cells; experiment: Effect of extracellular APP on zinc uptake by PC12 cells; assay type: cell-based; settings: 10 nM APP, within an hour (=4% in the absence of APP)
Procedure: 10^6 PC12 cells were plated for 24 hr in the presence of Dulbecco's modified Eagle's medium (DMEM, N2) supplemented with 8% fetal calf serum (FCS). The medium was then removed and replaced with DMEM with no FCS and incubated for a further 24 hr. The cells were then washed (×2 with DMEM) and incubated with DMEM supplemented with 10 nM 130/110 kDa purified brain membrane-associated APP carrying 20 000 CPM ^65Zn prepared as in FIG. 1 above. Following varying periods of incubation, the cells were harvested, washed, exposed to Pronase digestion to remove surface proteins and then lysed in scintillant and assayed in a beta-counter.

[2] = Administration of zinc in Alzheimer's disease: neurological response; assay type: in vivo, human
Procedure: (§1) 100 mg elemental zinc (as sulphate, in capsules) was given orally to two individuals with Alzheimer's disease (NINCDS/ADRDC criteria with abnormal plasma APP profiles) and two age-matched controls (with normal plasma APP profiles). Zinc was continued for 7 days and morning fasting bloods collected before the commencement of zinc supplements and three weeks after ceasing the supplement. Western blots with monoclonal antibody 22C11 were carried out on 65 μg of plasma heparin-Sepharose eluate purified from the samples in the manner previously described. The results indicated an increase of 130 kDa species plasma APP relative to the other species present, in other words a shift towards the profile of APP species that is characteristic of Alzheimer's disease. The two control plasma APP profiles came to resemble Alzheimer's disease profiles, and the two Alzheimer's profiles worsened. The proportional increase in the 130 kDa species was approximately 20% per day of zinc supplementation.
The subjects from Example 3 were studied.
The two AD volunteers because acutely unwell while on zinc supplementation. […] Eye movement abnormalities and general levels of self care worsened over the period of supplementation. This response was consistent with a neurotoxic response to the zinc supplementation.

[3] = system: human brain membrane-derived APP; experiment: trypsin digestion of human brain membrane-derived APP, Western blot with 22C11; assay type: biochemical; settings: summary statement
Excerpt: The proteolytic activity of trypsin (Boehringer, Mannheim) was studied to determine whether it was modulated by a range of doses of heparin (Sigma) and ZnCl2. […] Western blots for APP using the APP binding monoclonal antibody 22C11 were used to monitor the progression of the proteolytic reaction and to detect breakdown products.

[4] = molecular target: T1, APP purified from rat brain (Rattus norvegicus, UniProt P08592); experiment: heparin binding to APP in a Biosensor system; settings: summary statement, 'may increase'
T1 construct: from tissue; host or cells: rat brain
Procedure: The effect of Zn^2+ in modulating heparin binding to APP was also studied in a Biosensor system. […] This effect was most pronounced and most specific for Zn^2+, as opposed to the absence of divalent cations or the presence of Ca^2+, Mg^2+ or Co^2+, and was most evident when the heparin:APP ratio was low. […] Zn^2+ at 50 nM promoted a =170% increase in heparin binding, the effect saturating at 70 μM.

[5] = system: APP-degrading protease; experiment: Assay of APP-degrading protease (Zn^2+-enhanced degradation of plasma 130 kDa APP); assay type: biochemical, human; settings: plasma APP from heparin-Sepharose eluates, 37° C.
[6] = system: plasma APP; experiment: Effect of zinc loading upon human plasma APP; assay type: in vivo
Procedure: as §1

T1 sequence (P08592 18-770): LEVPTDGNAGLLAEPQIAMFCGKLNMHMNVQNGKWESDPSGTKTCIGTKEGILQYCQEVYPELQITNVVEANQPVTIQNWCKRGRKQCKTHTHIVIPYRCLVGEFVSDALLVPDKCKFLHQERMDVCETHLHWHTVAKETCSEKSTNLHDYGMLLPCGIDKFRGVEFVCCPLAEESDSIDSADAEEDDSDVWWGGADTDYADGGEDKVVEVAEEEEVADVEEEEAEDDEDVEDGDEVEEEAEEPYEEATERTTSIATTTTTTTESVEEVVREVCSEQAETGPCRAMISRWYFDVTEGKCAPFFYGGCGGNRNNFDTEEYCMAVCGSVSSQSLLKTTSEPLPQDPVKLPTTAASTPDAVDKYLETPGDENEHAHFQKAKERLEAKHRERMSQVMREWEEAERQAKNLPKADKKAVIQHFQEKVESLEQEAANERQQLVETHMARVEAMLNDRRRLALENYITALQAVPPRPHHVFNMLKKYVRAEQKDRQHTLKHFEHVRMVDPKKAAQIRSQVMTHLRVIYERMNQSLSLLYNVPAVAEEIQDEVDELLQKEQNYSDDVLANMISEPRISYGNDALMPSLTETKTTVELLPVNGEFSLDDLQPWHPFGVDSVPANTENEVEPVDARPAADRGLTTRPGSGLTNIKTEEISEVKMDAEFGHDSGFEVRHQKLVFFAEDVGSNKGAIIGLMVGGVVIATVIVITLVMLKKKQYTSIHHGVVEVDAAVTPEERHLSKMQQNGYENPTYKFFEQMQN

## APP: 130/110 kDa purified brain membrane-associated amyloid precursor protein carrying ^65Zn
[1]
  ^65Zn counts internalized: 10%

## [Zn] [zinc]
[2]; AD volunteers
  return of cognitive function to previous levels after ceasing supplementation: within two weeks
[2]; AD volunteers, over the period of supplementation
  eye movement abnormalities and general levels of self care: worsened
[2]; Alzheimer's disease volunteers on oral zinc supplementation
  mini-mental state examination scores: deteriorating from moderately demented levels to unrecordable
[2]; healthy volunteers on zinc supplementation
  ill effects in healthy volunteers: no ill effects
[3]
  zinc concentration at which the protective effects of heparin are abolished: above 1 μm
[4]
  increase of APP affinity for heparin: 5 to 10 fold
[5]
  zinc concentration required to stimulate proteolysis: 20 μm
[6]; 100 mg elemental zinc orally for 7 days, AD and age-matched controls
  proportional increase in the 130 kDa species of plasma APP: approximately 20 % per day
[6]; elderly control, four-fold higher dose over three days
  persistence of changes in plasma APP profile: persisted for three days after ceasing supplementation
